# Target: T1, human PAR4 (Homo sapiens, UniProt Q96RI0)
# T1 construct: expressed in transfected cells; host or cells: HEK293 PAR4 Clone 1.2A (BMS Arctic ID 383940)
# T1 sequence (Q96RI0 18-385): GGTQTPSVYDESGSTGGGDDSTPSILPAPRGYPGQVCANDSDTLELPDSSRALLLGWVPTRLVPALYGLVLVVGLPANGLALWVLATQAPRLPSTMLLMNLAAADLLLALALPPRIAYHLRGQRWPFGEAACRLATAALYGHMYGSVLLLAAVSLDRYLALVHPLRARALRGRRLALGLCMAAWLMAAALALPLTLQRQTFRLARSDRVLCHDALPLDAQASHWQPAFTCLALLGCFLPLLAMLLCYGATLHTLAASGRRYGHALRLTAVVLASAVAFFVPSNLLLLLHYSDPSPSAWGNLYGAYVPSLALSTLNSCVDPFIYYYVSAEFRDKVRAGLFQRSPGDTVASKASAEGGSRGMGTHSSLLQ
# Assay: PAR4 FLIPR assay: antagonism of agonist-peptide-induced calcium mobilization in PAR4-expressing HEK293 cells
# Format: cell-based
# Details: H-Ala-Phe(4-F)-[…]NH2-induced intracellular calcium mobilization, 11-point curves
row,Compound,IC50 [nM]
1,"COc1cnc2c(-c3nc4cc(F)c(OCC(COCC(C)C)OC(=O)Nc5cnc(C)nc5)cc4s3)cc(C)cc2n1 (racemic) [Example 525, 1-((5-fluoro-2-(2-methoxy-7-methylquinoxalin-5-yl)benzo[d]thiazol-6-yl)oxy)-3-isobutoxypropan-2-yl (2-methylpyrimidin-5-yl)carbamate (rac)]",2.3
2,"COc1cnc2c(-c3nc4cc(F)c(O[C@@H](C)[C@@H](C)OC(=O)Nc5ccc(C(C)O)nc5)nc4s3)cc(C)cc2n1 (single isomer, unassigned) [Example 766]",2.9
3,"COc1cnc2c(-c3nc4cc(F)c(O[C@@H](C)[C@@H](C)OC(=O)Nc5ccc(C(C)O)nc5)nc4s3)cc(C)cc2n1 (single isomer, unassigned) [Example 767]",3.4
4,"COc1cnc2c(-c3nc4cc(F)c(O[C@@H](C)[C@@H](C)OC(=O)Nc5ccc(C(N)=O)nc5)cc4s3)cc(C)cc2n1 (stereo in doubt) [Example 391, (2R,3S)-3-((5-fluoro-2-(2-methoxy-7-methylquinoxalin-5-yl)benzo[d]thiazol-6-yl)oxy)butan-2-yl (6-carbamoylpyridin-3-yl)carbamate]",2
5,"COc1cnc2c(-c3nc4cc(F)c(O[C@@H](C)[C@@H](C)OC(=O)Nc5ccc(C(=O)NCCO)nc5)cc4s3)cc(C)cc2n1 (stereo in doubt) [Example 392, (2R,3S)-3-((5-fluoro-2-(2-methoxy-7-methylquinoxalin-5-yl)benzo[d]thiazol-6-yl)oxy)butan-2-yl (6-((2-hydroxyethyl)carbamoyl)pyridin-3-yl)carbamate]",3.1
6,"CNC(=O)c1cnc2c(-c3nc4cc(F)c(O[C@@H](C)[C@@H](C)OC(=O)Nc5cnc(C)nc5)cc4s3)cc(C)cc2n1 (stereo in doubt) [Example 393, (2R,3S)-3-((5-fluoro-2-(7-methyl-2-(methylcarbamoyl)quinoxalin-5-yl)benzo[d]thiazol-6-yl)oxy)butan-2-yl (2-methylpyrimidin-5-yl)carbamate]",30
7,"Cc1cc(-c2cc3ccccc3o2)c2ncc(OC(F)F)nc2c1 [Example 1, 5-(benzofuran-2-yl)-2-(difluoromethoxy)-7-methylquinoxaline]",29
8,"Cc1cc(-c2nc3ccccc3o2)c2ncc(OC(F)F)nc2c1 [Example 3, 2-(2-(difluoromethoxy)-7-methylquinoxalin-5-yl)benzo[d]oxazole]",240
9,"Cc1cc(-c2cc3ccccc3[nH]2)c2ncc(OC(F)F)nc2c1 [Example 5, 2-(difluoromethoxy)-5-(1H-indol-2-yl)-7-methylquinoxaline]",880
10,"COc1ccc2oc(-c3cc(C)cc4nc(OC(F)F)cnc34)cc2c1OC [Example 6, 2-(difluoromethoxy)-5-(4,5-dimethoxybenzofuran-2-yl)-7-methylquinoxaline]",130
11,"Cc1cc(-c2nc3ccc(OCc4ccccc4)cc3s2)c2ncc(OC(F)F)nc2c1 [Example 7, 6-(benzyloxy)-2-(2-(difluoromethoxy)-7-methylquinoxalin-5-yl)benzo[d]thiazole]",800

# Other lines, results leading:
row,IC50 [nM],Compound
1,15,"COCc1cnc2c(-c3nc4c(C)c(C)c(OC(C)C(C)O)cc4s3)cc(C)cc2n1 (mixture of isomers) [Example 323, 3-((2-(2-(methoxymethyl)-7-methylquinoxalin-5-yl)-4,5-dimethylbenzo[d]thiazol-6-yl)oxy)butan-2-ol]"
2,3.1,"COCc1cnc2c(-c3nc4c(C)c(C)c(OC(C)CO)cc4s3)cc(C)cc2n1 (racemic) [Example 321, 2-((2-(2-(methoxymethyl)-7-methylquinoxalin-5-yl)-4,5-dimethylbenzo[d]thiazol-6-yl)oxy)propan-1-ol]"
3,5.1,"COCc1cnc2c(-c3nc4c(C)c(C)c(OCC(C)O)cc4s3)cc(C)cc2n1 (racemic) [Example 322, 1-((2-(2-(methoxymethyl)-7-methylquinoxalin-5-yl)-4,5-dimethylbenzo[d]thiazol-6-yl)oxy)propan-2-ol]"
4,1.4,"COCc1cnc2c(-c3nc4c(C(O)C(C)(C)C)c(C)c(OC)cc4s3)cc(C)cc2n1 (racemic) [Example 328, 1-(6-methoxy-2-(2-(methoxymethyl)-7-methylquinoxalin-5-yl)-5-methylbenzo[d]thiazol-4-yl)-2,2-dimethylpropan-1-ol]"
5,1.4,"COc1ccc(NC(=O)OCC(C)Oc2cc3sc(-c4cc(C)cc5nc(OC)cnc45)nc3c(Cl)c2F)cn1 (racemic) [Example 381, 2-((4-chloro-5-fluoro-2-(2-methoxy-7-methylquinoxalin-5-yl)benzo[d]thiazol-6-yl)oxy)propyl (6-methoxypyridin-3-yl)carbamate]"
6,2,"COCC(COc1cc2sc(-c3cc(C)cc4nc(OC)cnc34)nc2cc1F)OC(=O)Nc1cccnc1 (racemic) [Example 516, 1-((5-fluoro-2-(2-methoxy-7-methylquinoxalin-5-yl)benzo[d]thiazol-6-yl)oxy)-3-methoxypropan-2-yl pyridin-3-ylcarbamate (rac)]"
7,0.5,"COCc1cnc2c(-c3nc4c(C(O)c5ccccc5)cc(OC)cc4s3)cc(C)cc2n1 (single isomer, unassigned) [Example 163, (6-methoxy-2-(2-(methoxymethyl)-7-methylquinoxalin-5-yl)benzo[d]thiazol-4-yl)(phenyl)methanol]"
8,0.5,"COCc1cnc2c(-c3nc4c(C(O)C(C)(C)C)cc(OC)cc4s3)cc(C)cc2n1 (single isomer, unassigned) [Example 164, 1-(6-methoxy-2-(2-(methoxymethyl)-7-methylquinoxalin-5-yl)benzo[d]thiazol-4-yl)-2,2-dimethylpropan-1-ol]"
9,0.4,"[2H]C(O)(c1cc(OC)cc2sc(-c3cc(C)cc4nc(COC)cnc34)nc12)C(C)(C)C (single isomer, unassigned) [Example 169, 1-(6-methoxy-2-(2-(methoxymethyl)-7-methylquinoxalin-5-yl)benzo[d]thiazol-4-yl)-2,2-dimethylpropan-1-ol-1-d1]"
10,0.3,"[2H]C([2H])([2H])OC([2H])([2H])c1cnc2c(-c3nc4c(C(O)C(C)(C)C)cc(OC)cc4s3)cc(C)cc2n1 (single isomer, unassigned) [Example 170, 1-(6-methoxy-2-(2-(methoxymethyl)-7-methylquinoxalin-5-yl)benzo[d]thiazol-4-yl)-2,2-dimethylpropan-1-ol-d5]"
11,1.3,"COc1ccc(NC(=O)OC[C@H](C)Oc2cc3sc(-c4cc(C)cc5nc(OC)cnc45)nc3c(Cl)c2F)cn1 (single isomer, unassigned) [Example 382]"
12,2.6,"COc1cc(C(O)C(F)(F)F)c2nc(-c3cc(C)cc4nc(OC)cnc34)sc2c1 (single isomer, unassigned) [Example 633, 2,2,2-trifluoro-1-(6-methoxy-2-(2-methoxy-7-methylquinoxalin-5-yl)benzo[d]thiazol-4-yl)ethanol]"
13,0.9,"COc1cc(C(O)C2(C(F)(F)F)CCC2)c2nc(-c3cc(C)cc4nc(OC)cnc34)sc2c1 (single isomer, unassigned) [Example 664]"
14,11,"COc1ccc2oc(-c3cc(C)cc4nc(OC(F)F)cnc34)cc2c1 [Example 2, 2-(difluoromethoxy)-5-(5-methoxybenzofuran-2-yl)-7-methylquinoxaline]"
15,17,"Cc1cc(-c2nc3ccccc3s2)c2ncc(OC(F)F)nc2c1 [Example 4, 2-(2-(difluoromethoxy)-7-methylquinoxalin-5-yl)benzo[d]thiazole]"
